Measured values taken from PubChem BioAssay (NCI).
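96-well plates; 48 h exposure; 5 concentrations. Endpoints by linear interpolation between flanking doses. Not reached: highest tested concentration assigned. At the GI50, growth is halved. The concentration for full growth arrest is given as TGI.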

Assays:
Assay in all cases: DTP human tumour cell line panel, 48 h
MDA-MB-231 breast = test system: MDA-MB-231 breast
CCRF-CEM leukemia = test system: CCRF-CEM leukemia
OVCAR-4 ovarian = test system: OVCAR-4 ovarian
UACC-62 melanoma = test system: UACC-62 melanoma
HS 578T breast = test system: HS 578T breast
HT29 colon = test system: HT29 colon
SN12C renal = test system: SN12C renal
HOP-92 NSCLC = test system: HOP-92 NSCLC
RXF 393 renal = test system: RXF 393 renal
COLO 205 colon = test system: COLO 205 colon
OVCAR-5 ovarian = test system: OVCAR-5 ovarian
NCI-H226 lung = test system: NCI-H226 lung
SF-268 CNS = test system: SF-268 CNS
TK-10 renal = test system: TK-10 renal
HCC-2998 colon = test system: HCC-2998 colon
CAKI-1 renal = test system: CAKI-1 renal
ACHN renal = test system: ACHN renal
NCI-H522 lung = test system: NCI-H522 lung
K-562 leukemia = test system: K-562 leukemia
EKVX NSCLC = test system: EKVX NSCLC
UACC-257 melanoma = test system: UACC-257 melanoma
KM12 colon = test system: KM12 colon
NCI/ADR-RES ovarian = test system: NCI/ADR-RES ovarian
BT-549 breast = test system: BT-549 breast
M14 melanoma = test system: M14 melanoma
RPMI-8226 leukemia = test system: RPMI-8226 leukemia
A498 renal = test system: A498 renal
OVCAR-3 ovarian = test system: OVCAR-3 ovarian
T-47D breast = test system: T-47D breast
MCF7 breast = test system: MCF7 breast
SR leukemia = test system: SR leukemia
DU-145 prostate = test system: DU-145 prostate
IGROV1 ovarian = test system: IGROV1 ovarian
SW-620 colon = test system: SW-620 colon
NCI-H460 lung = test system: NCI-H460 lung
MALME-3M melanoma = test system: MALME-3M melanoma
SK-MEL-2 melanoma = test system: SK-MEL-2 melanoma
SK-MEL-5 melanoma = test system: SK-MEL-5 melanoma
HOP-62 NSCLC = test system: HOP-62 NSCLC
HCT-15 colon = test system: HCT-15 colon
SK-OV-3 ovarian = test system: SK-OV-3 ovarian
U251 CNS = test system: U251 CNS
786-0 renal = test system: 786-0 renal
SF-539 CNS = test system: SF-539 CNS
SK-MEL-28 melanoma = test system: SK-MEL-28 melanoma
MOLT-4 leukemia = test system: MOLT-4 leukemia
A549 NSCLC = test system: A549 NSCLC
HCT-116 colon = test system: HCT-116 colon
SNB-75 CNS = test system: SNB-75 CNS
SNB-19 CNS = test system: SNB-19 CNS
MDA-MB-435 = test system: MDA-MB-435
UO-31 renal = test system: UO-31 renal
OVCAR-8 ovarian = test system: OVCAR-8 ovarian
HL-60(TB) leukemia = test system: HL-60(TB) leukemia
PC-3 prostate = test system: PC-3 prostate
SF-295 CNS = test system: SF-295 CNS

COc1cccc(N2CCN(c3ncnc4c3[nH]c3ccc(F)cc34)C[C@@H]2C)c1 gave a GI50 (MDA-MB-231 breast) of 2270 nM, a TGI (MDA-MB-231 breast) of 6470 nM and a GI50 (CCRF-CEM leukemia) of 603 nM. For the same molecule, the TGI (CCRF-CEM leukemia) was greater than 100000 nM, the GI50 (OVCAR-4 ovarian) was 852 nM and the TGI (OVCAR-4 ovarian) was 3860 nM. The GI50 (UACC-62 melanoma) was 716 nM, the TGI (UACC-62 melanoma) was 2120 nM and the GI50 (HS 578T breast) was 1770 nM. It also gave a TGI (HS 578T breast) of 8520 nM, a GI50 (HT29 colon) of 2790 nM and a TGI (HT29 colon) of 9850 nM. For the same molecule, the GI50 (SN12C renal) was 1170 nM, the TGI (SN12C renal) was 2460 nM and the GI50 (HOP-92 NSCLC) was 2280 nM. The TGI (HOP-92 NSCLC) was 6920 nM, the GI50 (RXF 393 renal) was 2240 nM and the TGI (RXF 393 renal) was 5450 nM. The GI50 (COLO 205 colon) was 1430 nM, the TGI (COLO 205 colon) was 2800 nM and the GI50 (OVCAR-5 ovarian) was 2280 nM. For the same molecule, the TGI (OVCAR-5 ovarian) was 6160 nM, the GI50 (NCI-H226 lung) was 1320 nM and the TGI (NCI-H226 lung) was 3030 nM. For the same molecule, the GI50 (SF-268 CNS) was 1980 nM, the TGI (SF-268 CNS) was 6720 nM and the GI50 (TK-10 renal) was 2140 nM. For the same molecule, the TGI (TK-10 renal) was 4420 nM, the GI50 (HCC-2998 colon) was 2610 nM and the TGI (HCC-2998 colon) was 8320 nM. It also gave a GI50 (CAKI-1 renal) of 1670 nM, a TGI (CAKI-1 renal) of 5580 nM and a GI50 (ACHN renal) of 1490 nM. It also gave a TGI (ACHN renal) of 3720 nM, a GI50 (NCI-H522 lung) of 592 nM and a TGI (NCI-H522 lung) of 2020 nM. The GI50 (K-562 leukemia) was 1120 nM, the TGI (K-562 leukemia) was greater than 100000 nM and the GI50 (EKVX NSCLC) was 1880 nM. For the same molecule, the TGI (EKVX NSCLC) was 6160 nM, the GI50 (UACC-257 melanoma) was 1880 nM and the TGI (UACC-257 melanoma) was 3620 nM. It also gave a GI50 (KM12 colon) of 1220 nM, a TGI (KM12 colon) of 2730 nM and a GI50 (NCI/ADR-RES ovarian) of 1210 nM. The TGI (NCI/ADR-RES ovarian) was 4350 nM, the GI50 (BT-549 breast) was 343 nM and the TGI (BT-549 breast) was 1430 nM. The GI50 (M14 melanoma) was 1360 nM, the TGI (M14 melanoma) was 2730 nM and the GI50 (RPMI-8226 leukemia) was 492 nM. For the same molecule, the TGI (RPMI-8226 leukemia) was 3600 nM, the GI50 (A498 renal) was 2850 nM and the TGI (A498 renal) was 8030 nM. It also gave a GI50 (OVCAR-3 ovarian) of 1500 nM, a TGI (OVCAR-3 ovarian) of 5590 nM and a GI50 (T-47D breast) of 310 nM. It also gave a TGI (T-47D breast) of 1640 nM, a GI50 (MCF7 breast) of 1530 nM and a TGI (MCF7 breast) of 3450 nM. It also gave a GI50 (SR leukemia) of 2710 nM, a TGI (SR leukemia) greater than 100000 nM and a GI50 (DU-145 prostate) of 1380 nM. The TGI (DU-145 prostate) was 2670 nM, the GI50 (IGROV1 ovarian) was 1710 nM and the TGI (IGROV1 ovarian) was 4670 nM. For the same molecule, the GI50 (SW-620 colon) was 2270 nM, the TGI (SW-620 colon) was 6070 nM and the GI50 (NCI-H460 lung) was 2530 nM. For the same molecule, the TGI (NCI-H460 lung) was 7340 nM, the GI50 (MALME-3M melanoma) was 1360 nM and the TGI (MALME-3M melanoma) was 3430 nM. For the same molecule, the GI50 (SK-MEL-2 melanoma) was 1440 nM, the TGI (SK-MEL-2 melanoma) was 2820 nM and the GI50 (SK-MEL-5 melanoma) was 1310 nM. For the same molecule, the TGI (SK-MEL-5 melanoma) was 2580 nM, the GI50 (HOP-62 NSCLC) was 1230 nM and the TGI (HOP-62 NSCLC) was 2760 nM. It also gave a GI50 (HCT-15 colon) of 1750 nM, a TGI (HCT-15 colon) of 4420 nM and a GI50 (SK-OV-3 ovarian) of 2430 nM. It also gave a TGI (SK-OV-3 ovarian) of 7470 nM, a GI50 (U251 CNS) of 2280 nM and a TGI (U251 CNS) of 6080 nM. For the same molecule, the GI50 (786-0 renal) was 2050 nM, the TGI (786-0 renal) was 5240 nM and the GI50 (SF-539 CNS) was 2270 nM. The TGI (SF-539 CNS) was 5650 nM, the GI50 (SK-MEL-28 melanoma) was 1470 nM and the TGI (SK-MEL-28 melanoma) was 2910 nM. It also gave a GI50 (MOLT-4 leukemia) of 999 nM, a TGI (MOLT-4 leukemia) of 4650 nM and a GI50 (A549 NSCLC) of 1900 nM. The TGI (A549 NSCLC) was 5960 nM, the GI50 (HCT-116 colon) was 1220 nM and the TGI (HCT-116 colon) was 3130 nM. For the same molecule, the GI50 (SNB-75 CNS) was 1690 nM, the TGI (SNB-75 CNS) was 3060 nM and the GI50 (SNB-19 CNS) was 2550 nM. The TGI (SNB-19 CNS) was 6900 nM, the GI50 (MDA-MB-435) was 1590 nM and the TGI (MDA-MB-435) was 3180 nM. For the same molecule, the GI50 (UO-31 renal) was 467 nM, the TGI (UO-31 renal) was 1680 nM and the GI50 (OVCAR-8 ovarian) was 762 nM. It also gave a TGI (OVCAR-8 ovarian) of 2040 nM, a GI50 (HL-60(TB) leukemia) of 1250 nM and a TGI (HL-60(TB) leukemia) of 5190 nM. For the same molecule, the GI50 (PC-3 prostate) was 912 nM, the TGI (PC-3 prostate) was 3540 nM and the GI50 (SF-295 CNS) was 1610 nM. It also gave a TGI (SF-295 CNS) of 3350 nM.

For O=C(CSc1nnc(-c2ccc(Cl)cc2)n1-c1ccccc1)Nc1ccc(Br)cc1, the GI50 (CCRF-CEM leukemia) was greater than 50000 nM, the TGI (CCRF-CEM leukemia) was greater than 50000 nM and the GI50 (HT29 colon) was greater than 50000 nM. For the same molecule, the TGI (HT29 colon) was greater than 50000 nM, the GI50 (COLO 205 colon) was greater than 50000 nM and the TGI (COLO 205 colon) was greater than 50000 nM. The GI50 (HCC-2998 colon) was greater than 50000 nM, the TGI (HCC-2998 colon) was greater than 50000 nM and the GI50 (UACC-257 melanoma) was greater than 50000 nM. For the same molecule, the TGI (UACC-257 melanoma) was greater than 50000 nM, the GI50 (KM12 colon) was greater than 50000 nM and the TGI (KM12 colon) was greater than 50000 nM. The GI50 (BT-549 breast) was greater than 50000 nM, the TGI (BT-549 breast) was greater than 50000 nM and the GI50 (MCF7 breast) was greater than 50000 nM. The TGI (MCF7 breast) was greater than 50000 nM, the GI50 (DU-145 prostate) was greater than 50000 nM and the TGI (DU-145 prostate) was greater than 50000 nM. The GI50 (SW-620 colon) was greater than 50000 nM, the TGI (SW-620 colon) was greater than 50000 nM and the GI50 (SK-MEL-2 melanoma) was greater than 50000 nM. For the same molecule, the TGI (SK-MEL-2 melanoma) was greater than 50000 nM, the GI50 (HOP-62 NSCLC) was 1870 nM and the TGI (HOP-62 NSCLC) was greater than 50000 nM. For the same molecule, the GI50 (HCT-15 colon) was greater than 50000 nM, the TGI (HCT-15 colon) was greater than 50000 nM and the GI50 (MOLT-4 leukemia) was greater than 50000 nM. For the same molecule, the TGI (MOLT-4 leukemia) was greater than 50000 nM, the GI50 (SNB-19 CNS) was 1890 nM and the TGI (SNB-19 CNS) was greater than 50000 nM. The GI50 (MDA-MB-435) was greater than 50000 nM, the TGI (MDA-MB-435) was greater than 50000 nM and the GI50 (HL-60(TB) leukemia) was greater than 50000 nM. The TGI (HL-60(TB) leukemia) was greater than 50000 nM, the GI50 (PC-3 prostate) was greater than 50000 nM and the TGI (PC-3 prostate) was greater than 50000 nM.
